Where two headings read alike, the source gives them in different places.

Among the data in US10034861B2 (priority 2016, dated 2018) are IC50 values, retold here.

What all share (format): biochemical
In one test the target is PDE1B (Homo sapiens (Human), UniProt Q01064). Description: PDE1 inhibition assay (PDE1B). Particulars: 15 nM tritium labelled cAMP, 1 hr at room temperature, SPA beads. The source says:
(§1) Table 1 lists the IC50 value for inhibition of PDE1 by the compounds of the invention. […] PDE1 assays are described in the Experimental Section.

The next test addresses PDE1A (Homo sapiens (Human), UniProt P54750). Description: biochemical.
Description: as §1

A further test concerns the target PDE1C (Homo sapiens (Human), UniProt Q14123). Description: biochemical.
Description: as §1

Setting [1] is: 15 nM tritium labelled cAMP, 1 hr at room temperature, SPA beads.

Chain of PDE1C (Q14123 whole entry): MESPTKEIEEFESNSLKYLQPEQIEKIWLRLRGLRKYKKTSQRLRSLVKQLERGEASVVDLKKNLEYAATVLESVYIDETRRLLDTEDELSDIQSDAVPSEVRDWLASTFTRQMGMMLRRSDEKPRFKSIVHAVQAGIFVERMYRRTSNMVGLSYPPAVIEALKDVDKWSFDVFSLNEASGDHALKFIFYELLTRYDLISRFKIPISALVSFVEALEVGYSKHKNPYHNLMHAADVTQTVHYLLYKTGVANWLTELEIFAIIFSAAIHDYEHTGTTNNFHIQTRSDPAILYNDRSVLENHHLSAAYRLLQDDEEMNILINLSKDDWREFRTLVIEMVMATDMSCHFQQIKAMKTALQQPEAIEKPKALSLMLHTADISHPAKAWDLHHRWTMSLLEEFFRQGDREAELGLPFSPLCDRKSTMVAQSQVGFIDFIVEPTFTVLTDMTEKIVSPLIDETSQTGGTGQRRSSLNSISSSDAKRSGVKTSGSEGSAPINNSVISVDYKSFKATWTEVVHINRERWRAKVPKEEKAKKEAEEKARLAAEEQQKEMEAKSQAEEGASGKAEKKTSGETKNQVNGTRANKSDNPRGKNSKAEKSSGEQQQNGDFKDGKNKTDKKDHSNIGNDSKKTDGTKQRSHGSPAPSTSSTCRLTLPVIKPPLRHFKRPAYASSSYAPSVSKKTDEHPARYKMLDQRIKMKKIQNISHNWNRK
Chain of PDE1A (P54750 whole entry): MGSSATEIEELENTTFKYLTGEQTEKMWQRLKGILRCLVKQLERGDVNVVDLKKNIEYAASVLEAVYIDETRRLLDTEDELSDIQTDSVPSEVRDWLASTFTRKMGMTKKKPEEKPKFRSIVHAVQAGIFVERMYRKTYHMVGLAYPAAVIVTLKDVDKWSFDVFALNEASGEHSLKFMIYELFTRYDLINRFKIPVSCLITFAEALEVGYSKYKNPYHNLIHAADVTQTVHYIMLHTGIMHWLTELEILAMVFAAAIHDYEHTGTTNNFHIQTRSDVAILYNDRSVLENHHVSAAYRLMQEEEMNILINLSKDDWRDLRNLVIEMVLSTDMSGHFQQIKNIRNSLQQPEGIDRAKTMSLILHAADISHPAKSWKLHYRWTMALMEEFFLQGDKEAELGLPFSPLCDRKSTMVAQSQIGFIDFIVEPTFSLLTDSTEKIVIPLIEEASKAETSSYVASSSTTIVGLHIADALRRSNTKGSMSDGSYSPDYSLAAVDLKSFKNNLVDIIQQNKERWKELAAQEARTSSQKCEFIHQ
Chain of PDE1B (Q01064 whole entry): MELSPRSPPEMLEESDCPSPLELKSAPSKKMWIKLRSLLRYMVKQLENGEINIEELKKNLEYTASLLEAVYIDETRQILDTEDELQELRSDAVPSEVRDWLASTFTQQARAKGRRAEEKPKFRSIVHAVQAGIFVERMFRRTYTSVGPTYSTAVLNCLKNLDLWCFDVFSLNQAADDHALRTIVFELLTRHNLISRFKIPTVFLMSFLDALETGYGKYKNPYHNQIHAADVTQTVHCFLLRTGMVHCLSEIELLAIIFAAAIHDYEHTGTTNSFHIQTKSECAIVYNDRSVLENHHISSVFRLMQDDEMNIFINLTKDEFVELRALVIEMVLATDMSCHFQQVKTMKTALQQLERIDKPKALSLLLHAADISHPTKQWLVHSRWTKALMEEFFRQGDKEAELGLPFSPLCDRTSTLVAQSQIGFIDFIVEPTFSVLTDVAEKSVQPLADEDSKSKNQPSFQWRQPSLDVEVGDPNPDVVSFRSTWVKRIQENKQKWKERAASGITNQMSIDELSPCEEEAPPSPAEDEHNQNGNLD

Turning to `CCOc1ncccc1-c1cc(NCc2ccn(C)n2)c2c(n1)c(C)nn2C(C)C` [Example 60, 5-(2-ethoxy-3-pyridyl)-1-isopropyl-3-methyl-N-[(1-methylpyrazol-3-yl)methyl]pyrazolo[4,3-b]pyridin-7-amine], the half-maximal inhibitory concentration (IC50) (commonly the midpoint of a concentration-inhibition curve) was 0.59 nM at PDE1B (read-out: PDE1B, IC50); 6.5 nM on PDE1A (setting [1]); 12 nM against PDE1C (setting [1]). The corresponding values for `CCOc1ncccc1-c1cc(NCc2ccc(OC)cn2)c2c(n1)c(C)nn2C(C)C` [Example 112, 5-(2-ethoxy-3-pyridyl)-1-isopropyl-N-[(5-methoxy-2-pyridyl)methyl]-3-methyl-pyrazolo[4,3-b]pyridin-7-amine] are 12 nM, 61 nM and 100 nM. The matching figures for `CCOc1ncccc1-c1cc(NCc2ccc(C(F)F)nc2)c2c(n1)c(C)nn2C(C)C` [Example 117, N-[[6-(difluoromethyl)-3-pyridyl]methyl]-5-(2-ethoxy-3-pyridyl)-1-isopropyl-3-methyl-pyrazolo[4,3-b]pyridin-7-amine]: 2.3 nM, 18 nM and 26 nM. As to `CCOc1ncccc1-c1cc(NCc2nnc(C)o2)c2c(n1)c(C)nn2C(C)C` [Example 1, 5-(2-ethoxypyridin-3-yl)-1-isopropyl-3-methyl-N-((5-methyl-1,3,4-oxadiazol-2-yl)methyl)-1H-pyrazolo[4,3-b]pyridin-7-amine], the IC50 stood at 1.6 nM on PDE1B (read-out: PDE1B, IC50); 18 nM against PDE1A (setting [1]); 40 nM against PDE1C (setting [1]).

Regarding `CCCOc1ncccc1-c1cc(NCc2nc[nH]n2)c2c(n1)c(C)nn2C(C)C` [Example 146, 1-isopropyl-3-methyl-5-(2-propoxy-3-pyridyl)-N-(1H-1,2,4-triazol-3-ylmethyl)pyrazolo[4,3-b]pyridin-7-amine], the 50% inhibitory concentration (IC50) was determined as 0.51 nM on PDE1B (read-out: PDE1B, IC50); 3.9 nM on PDE1A (setting [1]); 14 nM against PDE1C (setting [1]).

With `Cc1nn(C(C)C)c2c(NCc3cnn(C)c3)cc(N3CC(C)OC3=O)nc12` (stereo not drawn) [Example 150, 3-[1-isopropyl-3-methyl-7-[(1-methylpyrazol-4-yl)methylamino]pyrazolo[4,3-b]pyridin-5-yl]-5-methyl-oxazolidin-2-one], the IC50 at PDE1B (read-out: PDE1B, IC50) is 33 nM; against PDE1A (setting [1]) it was 44 nM; against PDE1C (setting [1]) it was 13 nM.

Take `CCOc1ncccc1-c1cc(NCc2cn(C)cn2)c2c(cnn2C(C)C)n1` [Example 21, 5-(2-ethoxy-3-pyridyl)-1-isopropyl-N-[(1-methylimidazol-4-yl)methyl]pyrazolo[4,3-b]pyridin-7-amine]: the concentration for half-maximal inhibition (IC50) on PDE1B (read-out: PDE1B, IC50) was determined as 0.44 nM; against PDE1A (setting [1]), 8.9 nM; against PDE1C (setting [1]), 29 nM.

`Cc1ncoc1-c1cc(NCc2cnn(C)c2)c2c(n1)c(C)nn2C(C)C` [Example 200, 1-isopropyl-3-methyl-N-((1-methyl-1H-pyrazol-4-yl)methyl)-5-(4-methyloxazol-5-yl)-1H-pyrazolo[4,3-b]pyridin-7-amine]: the concentration for half-maximal inhibition (IC50) on PDE1B (read-out: PDE1B, IC50) was found to be 18 nM; against PDE1A (setting [1]) it was 98 nM; against PDE1C (setting [1]), 110 nM. With `CCOc1ncccc1-c1cc(NCc2cc(CF)on2)c2c(n1)c(C)nn2C(C)C` [Example 166, 5-(2-ethoxy-3-pyridyl)-N-[[5-(fluoromethyl)isoxazol-3-yl]methyl]-1-isopropyl-3-methyl-pyrazolo[4,3-b]pyridin-7-amine], the half-maximal inhibitory concentration (IC50) on PDE1B (read-out: PDE1B, IC50) worked out at 0.16 nM.

With `COc1ncccc1-c1cc(NCc2cnc(C)s2)c2c(n1)c(C)nn2C(C)C` [Example 173, 1-isopropyl-5-(2-methoxy-3-pyridyl)-3-methyl-N-[(2-methylthiazol-5-yl)methyl]pyrazolo[4,3-b]pyridin-7-amine], the IC50 on PDE1B (read-out: PDE1B, IC50) is 6.3 nM; on PDE1A (setting [1]) it was 49 nM; on PDE1C (setting [1]) it was 26 nM.

With `CCOc1ncccc1-c1cc(NCc2cncc(OC)c2)c2c(n1)c(C)nn2C(C)CC` (single isomer, unassigned; enantiomer 2) [Example 125, 5-(2-ethoxy-3-pyridyl)-N-[(5-methoxy-3-pyridyl)methyl]-3-methyl-1-[1-methylpropyl]pyrazolo[4,3-b]pyridin-7-amine, enantiomer 2], the IC50 against PDE1B (PDE1B, IC50 (nM)) worked out at 0.32 nM.

For the compound `Cc1sccc1-c1cc(NCc2cnn(C)c2)c2c(n1)c(C)nn2C(C)C` [Example 65, 1-isopropyl-3-methyl-N-[(1-methylpyrazol-4-yl)methyl]-5-(2-methyl-3-thienyl)pyrazolo[4,3-b]pyridin-7-amine], the concentration for half-maximal inhibition (IC50) came to 1.2 nM at PDE1B (read-out: PDE1B, IC50) and 7.9 nM at PDE1A (setting [1]). As for `CCOc1ncccc1-c1cc(NCc2cnn(C(F)F)c2)c2c(n1)c(C)nn2C(C)C` [Example 165, N-[[1-(difluoromethyl)pyrazol-4-yl]methyl]-5-(2-ethoxy-3-pyridyl)-1-isopropyl-3-methyl-pyrazolo[4,3-b]pyridin-7-amine], the IC50 against PDE1B (PDE1B, IC50 (nM)) turned out to be 5.9 nM; against PDE1A, 73 nM. On to `Cc1nn(C(C)C)c2c(NCc3cnn(C)c3)cc(-c3cccn(C)c3=O)nc12` [Example 49, 3-(1-isopropyl-3-methyl-7-(((1-methyl-1H-pyrazol-4-yl)methyl)amino)-1H-pyrazolo[4,3-b]pyridin-5-yl)-1-methylpyridin-2(1H)-one], for which the concentration for half-maximal inhibition (IC50) on PDE1B (read-out: PDE1B, IC50) amounted to 20 nM; against PDE1C (setting [1]), 420 nM.

With `CCOc1ncccc1-c1cc(NCc2nc(C)cs2)c2c(n1)c(C)nn2C(C)C` [Example 29, 5-(2-ethoxypyridin-3-yl)-1-isopropyl-3-methyl-N-((4-methylthiazol-2-yl)methyl)-1H-pyrazolo[4,3-b]pyridin-7-amine], the IC50 at PDE1B (read-out: PDE1B, IC50) was 1.1 nM.

Consider `CCOc1ncccc1-c1cc(NCc2ncn(C)n2)c2c(n1)c(C)nn2C(C)CC` (single isomer, unassigned) [Example 121, 5-(2-ethoxy-3-pyridyl)-3-methyl-1-[1-methylpropyl]-N-[(1-methyl-1,2,4-triazol-3-yl)methyl]pyrazolo[4,3-b]pyridin-7-amine], for which the midpoint of inhibition at PDE1B (PDE1B, IC50 (nM)), the IC50, lay at 0.47 nM. Still for that read-out and setting: for `CCOc1ncccc1-c1cc(NCc2nnn(C)n2)c2c(n1)c(C)nn2C(C)CC` (single isomer, unassigned) [Example 127, 5-(2-ethoxy-3-pyridyl)-3-methyl-1-[1-methylpropyl]-N-[(2-methyltetrazol-5-yl)methyl]pyrazolo[4,3-b]pyridin-7-amine] the value was 0.31 nM. Take `CCOc1ncccc1-c1cc(NCc2nc[nH]n2)c2c(n1)c(C)nn2C(C)C` [Example 98, 5-(2-ethoxy-3-pyridyl)-1-isopropyl-3-methyl-N-(1H-1,2,4-triazol-3-ylmethyl)pyrazolo[4,3-b]pyridin-7-amine]: the IC50 turned out to be 0.58 nM at PDE1B (read-out: PDE1B, IC50) and 21 nM against PDE1C (setting [1]).

Consider `CCOc1ncccc1-c1cc(NCc2nc(C)co2)c2c(n1)c(C)nn2C(C)C` [Example 50, 5-(2-ethoxypyridin-3-yl)-1-isopropyl-3-methyl-N-((4-methyloxazol-2-yl)methyl)-1H-pyrazolo[4,3-b]pyridin-7-amine 2,2,2-trifluoroacetate], for which the 50% inhibitory concentration (IC50) on PDE1B (read-out: PDE1B, IC50) amounted to 0.5 nM; against PDE1A (setting [1]), 9 nM. `CCOc1ncccc1-c1cc(NCc2noc(C)n2)c2c(n1)c(C)nn2C(C)CC` (single isomer, unassigned) [Example 128, 5-(2-ethoxy-3-pyridyl)-3-methyl-N-[(5-methyl-1,2,4-oxadiazol-3-yl)methyl]-1-[1-methylpropyl]pyrazolo[4,3-b]pyridin-7-amine]: the IC50 at PDE1B (PDE1B, IC50 (nM)) is 0.26 nM. For `CCOc1ncccc1-c1cc(NCc2ccc(=O)n(C)c2)c2c(n1)c(C)nn2C(C)C` [Example 45], the half-inhibitory concentration (IC50) on PDE1B (read-out: PDE1B, IC50) was determined as 0.62 nM. As for `CCOc1ncccc1-c1cc(NCc2cc[nH]n2)c2c(n1)c(C)nn2C(C)CC` (single isomer, unassigned) [Example 119, 5-(2-ethoxy-3-pyridyl)-3-methyl-1-[1-methylpropyl]-N-(1H-pyrazol-3-ylmethyl)pyrazolo[4,3-b]pyridin-7-amine], the IC50 on PDE1B (PDE1B, IC50 (nM)) is 0.56 nM; at PDE1C it was 29 nM. Consider `CCOc1ncccc1-c1cc(NCc2cn(C)cn2)c2c(n1)c(C)nn2C(C)CC` (single isomer, unassigned) [Example 132, 5-(2-ethoxy-3-pyridyl)-3-methyl-N-[(1-methylimidazol-4-yl)methyl]-1-[1-methylpropyl]pyrazolo[4,3-b]pyridin-7-amine], for which the 50% inhibitory concentration (IC50) at PDE1B (PDE1B, IC50 (nM)) worked out at 0.045 nM. `CCOc1ncccc1-c1cc(NCc2cnc(C)o2)c2c(n1)c(C)nn2C(C)CC` (single isomer, unassigned) [Example 133, 5-(2-ethoxy-3-pyridyl)-3-methyl-N-[(2-methyloxazol-5-yl)methyl]-1-[1-methylpropyl]pyrazolo[4,3-b]pyridin-7-amine] registered an IC50 against PDE1B (PDE1B, IC50 (nM)) of 1.3 nM. As to `CCOc1ncccc1-c1cc(NCc2cnn(C)c2)c2c(n1)c(C)nn2C(C)C` [Example 9, 5-(2-ethoxypyridin-3-yl)-1-isopropyl-3-methyl-N-((1-methyl-1H-pyrazol-4-yl)methyl)-1H-pyrazolo[4,3-b]pyridin-7-amine], the IC50 was 2.6 nM against PDE1A (setting [1]) and 17 nM against PDE1C (setting [1]). On to `Cc1nn(C(C)C)c2c(NCc3cnn(C)c3)cc(-c3cccnc3N(C)C)nc12` [Example 201, 5-[2-(dimethylamino)-3-pyridyl]-1-isopropyl-3-methyl-N-[(1-methylpyrazol-4-yl)methyl]pyrazolo[4,3-b]pyridin-7-amine], for which the concentration for half-maximal inhibition (IC50) at PDE1B (read-out: PDE1B, IC50) amounted to 230 nM.

`CCOc1ncccc1-c1cc(NCc2cc(C)[nH]n2)c2c(n1)c(C)nn2C(C)CC` (single isomer, unassigned) [Example 131, 5-(2-ethoxy-3-pyridyl)-3-methyl-1-[1-methylpropyl]-N-[(5-methyl-1H-pyrazol-3-yl)methyl]pyrazolo[4,3-b]pyridin-7-amine]: the IC50 against PDE1B (PDE1B, IC50 (nM)) stood at 0.042 nM. In the case of `CCOc1ncccc1-c1cc(NCc2cc(C)no2)c2c(n1)c(C)nn2C(C)C` [Example 10, 5-(2-ethoxy-3-pyridyl)-1-isopropyl-3-methyl-N-[(3-methylisoxazol-5-yl)methyl]pyrazolo[4,3-b]pyridin-7-amine], the IC50 came to 4.1 nM on PDE1A (setting [1]) and 14 nM against PDE1C (setting [1]).
